Test results: ChEMBL document CHEMBL1811766, “Structure-activity relationship studies of novel pyrazole and imidazole carboxamides as cannabinoid-1 (CB1) antagonists” (Bioorg Med Chem Lett, 2011)

target: Cannabinoid receptor 1 (Rattus norvegicus) (UniProt P20272); experiment: Displacement of [3H]SR141716A from rat brain CB1 receptor at 100 nM at pH 7.4 after 1 hr by liquid scintillation counting; conditions: not given
Sequence (P20272 whole entry): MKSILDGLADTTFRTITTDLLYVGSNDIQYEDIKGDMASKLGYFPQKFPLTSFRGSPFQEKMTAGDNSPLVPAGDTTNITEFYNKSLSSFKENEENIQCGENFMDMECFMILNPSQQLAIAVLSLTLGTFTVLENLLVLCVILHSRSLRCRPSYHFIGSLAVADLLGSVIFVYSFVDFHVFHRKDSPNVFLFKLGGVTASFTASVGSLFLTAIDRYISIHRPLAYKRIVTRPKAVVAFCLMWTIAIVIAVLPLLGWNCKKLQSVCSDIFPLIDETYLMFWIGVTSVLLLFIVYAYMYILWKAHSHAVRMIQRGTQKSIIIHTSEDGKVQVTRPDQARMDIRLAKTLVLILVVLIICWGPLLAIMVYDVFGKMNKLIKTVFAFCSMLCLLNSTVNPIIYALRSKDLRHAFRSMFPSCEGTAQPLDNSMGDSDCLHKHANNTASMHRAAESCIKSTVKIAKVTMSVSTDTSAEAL

SMILES | inhibition [%]
COc1ccc2c(c1)CCCc1c(C(=O)NC(C)(C)c3nnnn3C)nn(-c3ccc(Cl)cc3Cl)c1-2 | 38
CCc1c(C(=O)NC(C)(C)c2nnnn2C)nn(-c2ccc(Cl)cc2Cl)c1-c1ccc(O)cc1 | 23
Cc1c(C(=O)NC(C)(C)c2nnnn2C)nc(-c2ccc(Cl)cc2Cl)n1-c1ccc(Cl)cc1 | 42
CCOC(=O)COc1ccc(-c2c(CC)c(C(=O)NC(C)(C)c3nnnn3C)nn2-c2ccc(Cl)cc2Cl)cc1 | 32
O=C(NC1(c2noc(C(F)(F)F)n2)CC1)c1nn(-c2ccc(Cl)cc2Cl)c(-c2ccc(Cl)cc2)c1C(=O)O | 44

test system: not listed separately; experiment: Half life in Swiss albino mouse at 30 mg/kg, po; format: ADME, organism-based; design: dose 30 mg/kg, route oral; conditions: in vivo

SMILES | half-life [h]
Cc1c(C(=O)NC2(c3noc(C(F)(F)F)n3)CC2)nn(-c2ccc(Cl)cc2Cl)c1-c1ccc(Cl)cc1 | 4.22

test system: not listed separately; experiment: Cmax in Swiss albino mouse at 30 mg/kg, po; format: ADME, organism-based; design: dose 30 mg/kg, route oral; conditions: in vivo

SMILES | Cmax [µg/mL]
Cc1c(C(=O)NC2(c3noc(C(F)(F)F)n3)CC2)nn(-c2ccc(Cl)cc2Cl)c1-c1ccc(Cl)cc1 | 0.35

test system: Mus musculus; experiment: Antiobesity activity in Swiss albino mouse assessed as reduction in acute food intake at 10 mg/kg, po administered as single dose relative to control; format: functional; design: scale not given: the % may be the effect or the level left; conditions: not given

SMILES | Activity [%]
Cc1c(C(=O)NC2(c3noc(C(F)(F)F)n3)CC2)nn(-c2ccc(Cl)cc2Cl)c1-c1ccc(Cl)cc1 | 31
Cc1c(C(=O)NN2CCCCC2)nn(-c2ccc(Cl)cc2Cl)c1-c1ccc(Cl)cc1 [RIMONABANT] | 71

test system: not listed separately; experiment: AUC (0 to 24 hrs) in Swiss albino mouse at 30 mg/kg, po; format: ADME, organism-based; design: time < 24 hr, dose 30 mg/kg, route oral; conditions: plasma

SMILES | AUC(0-t) at 24 h [µg·h/mL]
Cc1c(C(=O)NC2(c3noc(C(F)(F)F)n3)CC2)nn(-c2ccc(Cl)cc2Cl)c1-c1ccc(Cl)cc1 | 4.3

target: Cannabinoid receptor 1 (Rattus norvegicus) (UniProt P20272); experiment: Displacement of [3H]SR141716A from rat brain CB1 receptor at 1 uM at pH 7.4 after 1 hr by liquid scintillation counting; conditions: not given

SMILES | inhibition [%]
CCc1c(C(=O)NC(C)(C)c2nnnn2C)nn(-c2ccc(Cl)cc2Cl)c1-c1ccc(C(=O)O)cc1 | 50
Cc1c(C(=O)NC(C)(C)c2nc(CC(=O)O)cs2)nn(-c2ccc(Cl)cc2Cl)c1-c1ccc(Cl)cc1 | 50
O=C(NC1(c2noc(C(F)(F)F)n2)CC1)c1nn(-c2ccc(Cl)cc2Cl)c(-c2ccc(Cl)cc2)c1C(=O)O | 66
CCc1c(C(=O)NC(C)(C)c2nnnn2C)nn(-c2ccc(Cl)cc2Cl)c1-c1ccc(OCC(=O)O)cc1 | 25

target: Cannabinoid receptor 1 (Rattus norvegicus, UniProt P20272); experiment: Displacement of [3H]SR141716A from rat brain CB1 receptor at pH 7.4 after 1 hr by liquid scintillation counting; conditions: not given
Sequence (P20272 whole entry): as above

SMILES | IC50 [µM]
Cc1c(C(=O)NC(C)(C)c2cn3cc(Cl)ccc3n2)nn(-c2ccc(Cl)cc2Cl)c1-c1ccc(Cl)cc1 | 0.088
Cc1c(C(=O)NC2(c3noc(C(F)(F)F)n3)CC2)nn(-c2ccc(Cl)cc2Cl)c1-c1ccc(Cl)cc1 | 0.0001
CCOC(=O)c1ccc(-c2c(CC)c(C(=O)NC(C)(C)c3nnnn3C)nn2-c2ccc(Cl)cc2Cl)cc1 | 0.017
Cc1c(C(=O)NC(C)(C)c2cn3cccnc3n2)nn(-c2ccc(Cl)cc2Cl)c1-c1ccc(Cl)cc1 | 0.121
Cc1c(C(=O)NC2(c3noc(C(F)(F)F)n3)CCC2)nn(-c2ccc(Cl)cc2Cl)c1-c1ccc(Cl)cc1 | 0.0008
Cc1nc(C(C)(C)NC(=O)c2nn(-c3ccc(Cl)cc3Cl)c(-c3ccc(Cl)cc3)c2C)no1 | 0.033
Cc1c(C(=O)NC(C)(C)c2nnn(C)n2)nn(-c2ccc(Cl)cc2Cl)c1-c1ccc(Cl)cc1 | 0.088
CCc1c(C(=O)NC(C)(C)c2noc(C(F)(F)F)n2)nc(-c2ccc(Cl)cc2Cl)n1-c1ccc(Cl)cc1 | 0.003
CC(C)(NC(=O)c1cn(-c2ccc(Cl)cc2Cl)c(-c2ccc(Cl)cc2)n1)c1noc(C(F)(F)F)n1 | 0.03
COCc1c(C(=O)NC(C)(C)c2noc(C(F)(F)F)n2)nn(-c2ccc(Cl)cc2Cl)c1-c1ccc(Cl)cc1 | 0.004
C[C@H](NC(=O)C(C)(C)Oc1ccc(C(F)(F)F)cn1)[C@@H](Cc1ccc(Cl)cc1)c1cccc(C#N)c1 [TARANABANT] | 0.0003
O=C(NC1(c2noc(C(F)(F)F)n2)CC1)c1nn(-c2ccc(Cl)cc2Cl)c(-c2ccc(Cl)cc2)c1CO | 0.0001
CCc1c(C(=O)NC(C)(C)c2nnnn2C)nn(-c2ccc(Cl)cc2Cl)c1-c1ccc(OCC(=O)O)cc1 | > 1

test system: Mus musculus; experiment: Antiobesity activity in Swiss albino mouse assessed as reduction in acute food intake at 30 mg/kg, po administered as single dose relative to control; format: functional; design: scale not given: the % may be the effect or the level left; conditions: not given

SMILES | Activity [%]
Cc1c(C(=O)NC2(c3noc(C(F)(F)F)n3)CC2)nn(-c2ccc(Cl)cc2Cl)c1-c1ccc(Cl)cc1 | 53

test system: not listed separately; experiment: Ratio of drug level in brain to plasma in Swiss albino mouse at 30 mg/kg, po measured 1 hr post dose; format: ADME, organism-based; design: dose 30 mg/kg, route oral; conditions: read-out: BPR

SMILES | Kp at 1 h
Cc1c(C(=O)NC2(c3noc(C(F)(F)F)n3)CC2)nn(-c2ccc(Cl)cc2Cl)c1-c1ccc(Cl)cc1 | 0.21
Cc1c(C(=O)NN2CCCCC2)nn(-c2ccc(Cl)cc2Cl)c1-c1ccc(Cl)cc1 [RIMONABANT] | 3.64

target: Cannabinoid receptor 2 (Homo sapiens) (UniProt P34972); experiment: Displacement of [3H]CP55940 from human cannabinoid CB2 receptor expressed in CHO cells at 1 uM at pH 7.4 after 1 hr by liquid scintillation counting; format: cell-based; conditions: not given
Sequence (P34972 whole entry): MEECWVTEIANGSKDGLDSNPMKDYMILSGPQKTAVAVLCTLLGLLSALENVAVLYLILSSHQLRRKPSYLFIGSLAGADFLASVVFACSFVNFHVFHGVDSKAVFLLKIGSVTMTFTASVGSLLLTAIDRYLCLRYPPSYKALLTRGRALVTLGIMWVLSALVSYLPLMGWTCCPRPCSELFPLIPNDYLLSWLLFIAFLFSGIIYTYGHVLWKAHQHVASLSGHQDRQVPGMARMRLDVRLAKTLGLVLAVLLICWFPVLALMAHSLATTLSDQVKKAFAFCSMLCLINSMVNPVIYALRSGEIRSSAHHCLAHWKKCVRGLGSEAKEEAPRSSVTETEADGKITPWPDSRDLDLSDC

SMILES | inhibition [%]
Cc1c(C(=O)NC2(c3noc(C(F)(F)F)n3)CC2)nn(-c2ccc(Cl)cc2Cl)c1-c1ccc(Cl)cc1 | 49
O=C(NC1(c2noc(C(F)(F)F)n2)CC1)c1nn(-c2ccc(Cl)cc2Cl)c(-c2ccc(Cl)cc2)c1CO | 18
Cc1c(C(=O)NN2CCCCC2)nn(-c2ccc(Cl)cc2Cl)c1-c1ccc(Cl)cc1 [RIMONABANT] | 34

test system: Mus musculus; experiment: Antiobesity activity in Swiss albino mouse assessed as reduction in acute food intake administered orally as single dose; format: functional, organism-based; conditions: not given

SMILES | Activity
Cc1c(C(=O)NC2(c3noc(C(F)(F)F)n3)CC2)nn(-c2ccc(Cl)cc2Cl)c1-c1ccc(Cl)cc1 | Dose-dependent effect

test system: Mus musculus; experiment: Inhibition of WIN-55212 induced hypothermia in Swiss albino mouse assessed as change temperature at 3 mg/kg, po administered 30 mins after WIN55212 challenge measured after 30 mins; format: functional; conditions: 0.5 h

SMILES | inhibition in vivo at 3 mg/kg [%]
Cc1c(C(=O)NN2CCCCC2)nn(-c2ccc(Cl)cc2Cl)c1-c1ccc(Cl)cc1 [RIMONABANT] | 99

target: Voltage-gated inwardly rectifying potassium channel KCNH2 (Homo sapiens, UniProt Q12809); experiment: Inhibition of human ERG expressed in HEK293 cells assessed as inhibition of potassium channel current after 5 mins by patch clamp assay; format: cell-based; conditions: not given
Sequence (Q12809 whole entry): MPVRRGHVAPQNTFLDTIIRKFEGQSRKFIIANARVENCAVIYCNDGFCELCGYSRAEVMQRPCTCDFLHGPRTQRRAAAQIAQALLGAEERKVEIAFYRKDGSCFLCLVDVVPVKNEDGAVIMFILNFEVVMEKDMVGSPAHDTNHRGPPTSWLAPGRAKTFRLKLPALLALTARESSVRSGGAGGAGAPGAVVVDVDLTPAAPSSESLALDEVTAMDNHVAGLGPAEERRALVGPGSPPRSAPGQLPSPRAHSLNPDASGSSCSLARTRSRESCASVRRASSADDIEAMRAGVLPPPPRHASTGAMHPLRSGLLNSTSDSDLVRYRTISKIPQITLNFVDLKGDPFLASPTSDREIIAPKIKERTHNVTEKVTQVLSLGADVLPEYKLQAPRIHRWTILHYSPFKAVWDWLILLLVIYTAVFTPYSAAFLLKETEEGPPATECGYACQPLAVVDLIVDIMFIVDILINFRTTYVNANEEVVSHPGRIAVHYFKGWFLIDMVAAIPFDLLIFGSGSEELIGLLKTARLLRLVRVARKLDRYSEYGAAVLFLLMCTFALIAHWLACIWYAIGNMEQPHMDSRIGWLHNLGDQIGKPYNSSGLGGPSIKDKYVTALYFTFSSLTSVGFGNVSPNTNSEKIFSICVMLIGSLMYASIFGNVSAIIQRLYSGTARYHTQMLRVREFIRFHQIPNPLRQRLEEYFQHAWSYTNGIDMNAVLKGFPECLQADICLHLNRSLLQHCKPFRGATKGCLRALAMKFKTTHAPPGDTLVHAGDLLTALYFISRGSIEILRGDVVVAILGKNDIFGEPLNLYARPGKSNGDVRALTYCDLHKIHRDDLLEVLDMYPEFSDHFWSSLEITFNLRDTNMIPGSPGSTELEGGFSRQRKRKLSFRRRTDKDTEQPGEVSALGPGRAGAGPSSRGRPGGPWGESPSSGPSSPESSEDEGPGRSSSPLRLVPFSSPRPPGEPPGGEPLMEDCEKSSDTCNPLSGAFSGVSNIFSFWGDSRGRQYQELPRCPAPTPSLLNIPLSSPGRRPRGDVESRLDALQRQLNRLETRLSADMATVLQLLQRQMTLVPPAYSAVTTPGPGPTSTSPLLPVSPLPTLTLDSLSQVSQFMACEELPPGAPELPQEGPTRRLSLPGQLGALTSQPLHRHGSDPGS

SMILES | IC50 [µM]
Cc1c(C(=O)NC2(c3noc(C(F)(F)F)n3)CC2)nn(-c2ccc(Cl)cc2Cl)c1-c1ccc(Cl)cc1 | > 30
Cc1c(C(=O)NN2CCCCC2)nn(-c2ccc(Cl)cc2Cl)c1-c1ccc(Cl)cc1 [RIMONABANT] | 2.79

test system: Mus musculus; experiment: Antiobesity activity in C57BL/6 mouse assessed as reduction in body weight at 10 mg/kg, po QD for 15 days; format: functional; design: scale not given: the % may be the effect or the level left; conditions: not given

SMILES | Activity [%]
Cc1c(C(=O)NC2(c3noc(C(F)(F)F)n3)CC2)nn(-c2ccc(Cl)cc2Cl)c1-c1ccc(Cl)cc1 | 11

test system: Mus musculus; experiment: Inhibition of WIN-55212 induced hypothermia in Swiss albino mouse assessed as change temperature at 10 mg/kg, po administered 30 mins after WIN55212 challenge measured after 30 mins; format: functional; conditions: 0.5 h

SMILES | inhibition in vivo at 10 mg/kg [%]
Cc1c(C(=O)NC2(c3noc(C(F)(F)F)n3)CC2)nn(-c2ccc(Cl)cc2Cl)c1-c1ccc(Cl)cc1 | 97
O=C(NC1(c2noc(C(F)(F)F)n2)CC1)c1nn(-c2ccc(Cl)cc2Cl)c(-c2ccc(Cl)cc2)c1CO | 99

target: hERG (KCNH2) (Homo sapiens, UniProt Q12809); experiment: Inhibition of human ERG expressed in HEK293 cells assessed as inhibition of potassium channel current at 30 uM after 5 mins by patch clamp assay; format: cell-based; conditions: HEK293 cells expressing human ERG
Sequence (Q12809 whole entry): as above

SMILES | inhibition at 5 min, 30 µM [%]
Cc1c(C(=O)NC2(c3noc(C(F)(F)F)n3)CC2)nn(-c2ccc(Cl)cc2Cl)c1-c1ccc(Cl)cc1 | 7.2
